Test results: patent US20210363213A1, “GLUCAGON-GLP-1-GIP TRIPLE AGONIST COMPOUNDS” (priority 2013, published 2021)
pEC50: −log10 of the molar value. Where two headings read alike, the source gives them in different places. Peptide text beside a SMILES is read from it.

Target: T1, human GIP R (Homo sapiens, UniProt P48546)
T1 construct: expressed in transfected cells
T1 sequence (P48546 22-466): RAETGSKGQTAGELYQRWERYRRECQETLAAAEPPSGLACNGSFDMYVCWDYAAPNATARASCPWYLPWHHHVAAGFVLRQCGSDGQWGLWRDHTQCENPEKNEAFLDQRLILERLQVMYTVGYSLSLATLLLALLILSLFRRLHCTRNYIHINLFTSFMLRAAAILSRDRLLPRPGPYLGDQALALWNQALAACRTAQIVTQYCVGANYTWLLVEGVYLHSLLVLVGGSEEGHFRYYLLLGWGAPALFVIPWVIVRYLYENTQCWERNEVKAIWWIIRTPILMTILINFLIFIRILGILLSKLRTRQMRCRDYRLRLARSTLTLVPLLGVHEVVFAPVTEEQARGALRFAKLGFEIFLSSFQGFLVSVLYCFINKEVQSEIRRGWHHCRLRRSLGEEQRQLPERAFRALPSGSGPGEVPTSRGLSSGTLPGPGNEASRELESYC
Assay: Human GIP receptor (GIP-R) activity assay, cAMP induction (AlphaScreen) in HEK293 cells
Format: cell-based
Conditions: for EC50: Table 2b (most comprehensive data), average EC50, cAMP in HEK293 cells expressing human GIP R, read-out: GIP R (EC50 in nM)
Procedure: Briefly, HEK293 cells expressing the human GIP R, GLP-1 R or GCG R (stable cell lines generated through transfection of the cDNA for human GIP R, GLP-1 R or GCG R and selection of stable clones) were seeded at 30,000 cells/well in 96-well microtiter plates coated with 0.01% poly-L-lysine, and grown for 1 day in culture in 200 μl growth medium (DMEM, 10% FCS, Penicillin (100 IU/ml), Streptomycin (100 μg/ml)). On the day of analysis, growth medium was removed and the cells were washed once with 150 μl Tyrode's buffer (Tyrode's Salts (9.6 g/I), 10 mM HEPES, pH 7.4). […] The Assay buffer was removed and cells are lysed in 80 μl Lysis buffer (0.1% w/v BSA, 5 mM HEPES, 0.3% v/v Tween-20) per well. From each well 10 μl of lysed cells were transferred to a 384-well plate and mixed with 15 μl bead-mix (1 Unit/15 μl anti-cAMP Acceptor Beads, 1 Unit/15 μl Donor Beads, and 1 Unit/15 μl Biotinylated cAMP in Assay Buffer). The plates were mixed and incubated in the dark for an hour at room temperature before measuring using an Envision™ plate reader (Perkin-Elmer).
The resulting cAMP curves were plotted as absolute cAMP concentrations (nM) over log (test compound concentration) and analyzed using the curve fitting program XLfit.
Parameters calculated to describe both the potency as well as the agonistic activity of each test compound on the receptors were:
EC50, a concentration resulting in a half-maximal elevation of cAMP levels, reflecting the potency of the test compound.

SMILES	pEC50	EC50
CC[C@H](C)[C@H](NC(=O)[C@H](CO)NC(=O)[C@H](Cc1ccc(O)cc1)NC(=O)[C@H](CC(=O)O)NC(=O)[C@H](CO)NC(=O)[C@@H](NC(=O)[C@H](Cc1ccccc1)NC(=O)[C@@H](NC(=O)CNC(=O)[C@H](CCC(N)=O)NC(=O)C(C)(C)NC(=O)[C@@H](N)Cc1ccc(O)cc1)[C@@H](C)O)[C@@H](C)O)C(=O)N[C@@H](Cc1ccc(O)cc1)C(=O)N[C@@H](CC(C)C)C(=O)N[C@@H](CC(=O)O)C(=O)N[C@@H](CO)C(=O)N[C@@H](CCCCN)C(=O)N[C@@H](C)C(=O)N[C@@H](C)C(=O)N[C@@H](Cc1c[nH]cn1)C(=O)N[C@@H](CC(=O)O)C(=O)N[C@@H](Cc1ccccc1)C(=O)N[C@H](C(=O)N[C@@H](CC(N)=O)C(=O)N[C@@H](Cc1c[nH]c2ccccc12)C(=O)N[C@@H](CC(C)C)C(=O)N[C@@H](CC(C)C)C(=O)N[C@@H](CO)C(=O)N[C@@H](C)C(N)=O)C(C)C [Compound 11] (HELM PEPTIDE1{Y.[Aib].Q.G.T.F.T.S.D.Y.S.I.Y.L.D.S.K.A.A.H.D.F.V.N.W.L.L.S.A.[am]}$$$$V2.0)	9.60	
CC(C)C[C@H](NC(=O)[C@H](C)NC(=O)[C@H](CCCCN)NC(=O)[C@H](CO)NC(=O)[C@H](Cc1ccc(O)cc1)NC(=O)[C@H](CC(=O)O)NC(=O)[C@H](CO)NC(=O)[C@@H](NC(=O)[C@H](Cc1ccccc1)NC(=O)[C@@H](NC(=O)CNC(=O)[C@H](CCC(N)=O)NC(=O)C(C)(C)NC(=O)[C@@H](N)Cc1ccc(O)cc1)[C@@H](C)O)[C@@H](C)O)C(=O)N[C@@H](CC(=O)O)C(=O)N[C@@H](CO)C(=O)N[C@@H](CCCCN)C(=O)N[C@@H](C)C(=O)N[C@@H](C)C(=O)N[C@@H](Cc1c[nH]cn1)C(=O)N[C@@H](CC(=O)O)C(=O)N[C@@H](Cc1ccccc1)C(=O)N[C@H](C(=O)N[C@@H](CCC(=O)O)C(=O)N[C@@H](Cc1c[nH]c2ccccc12)C(=O)N[C@@H](CC(C)C)C(=O)N[C@@H](CC(C)C)C(=O)N[C@@H](CO)C(=O)N[C@@H](C)C(N)=O)C(C)C [Compound 7] (HELM PEPTIDE1{Y.[Aib].Q.G.T.F.T.S.D.Y.S.K.A.L.D.S.K.A.A.H.D.F.V.E.W.L.L.S.A.[am]}$$$$V2.0)	9.30	
CC(C)C[C@H](NC(=O)[C@H](CC(C)C)NC(=O)[C@H](Cc1c[nH]c2ccccc12)NC(=O)[C@H](CCC(=O)O)NC(=O)[C@@H](NC(=O)[C@H](Cc1ccccc1)NC(=O)[C@H](CC(=O)O)NC(=O)[C@H](CCCNC(=N)N)NC(=O)[C@H](C)NC(=O)[C@H](C)NC(=O)[C@H](CCCCN)NC(=O)[C@H](CO)NC(=O)[C@H](CC(=O)O)NC(=O)[C@H](CC(C)C)NC(=O)[C@H](Cc1ccc(O)cc1)NC(=O)[C@H](CCCCN)NC(=O)[C@H](CO)NC(=O)[C@H](Cc1ccc(O)cc1)NC(=O)[C@H](CC(=O)O)NC(=O)[C@H](CO)NC(=O)[C@@H](NC(=O)[C@H](Cc1ccccc1)NC(=O)[C@@H](NC(=O)CNC(=O)[C@H](CCC(N)=O)NC(=O)C(C)(C)NC(=O)[C@@H](N)Cc1ccc(O)cc1)[C@@H](C)O)[C@@H](C)O)C(C)C)C(=O)N[C@@H](CO)C(=O)N[C@@H](C)C(N)=O [Compound 6] (HELM PEPTIDE1{Y.[Aib].Q.G.T.F.T.S.D.Y.S.K.Y.L.D.S.K.A.A.R.D.F.V.E.W.L.L.S.A.[am]}$$$$V2.0)	9.49	
CCCCCCCCCCCCCCCC(=O)N[C@@H](CCC(=O)NCCCC[C@H](NC(=O)[C@H](CO)NC(=O)[C@H](CC(=O)O)NC(=O)[C@H](CC(C)C)NC(=O)[C@H](Cc1ccc(O)cc1)NC(=O)[C@@H](NC(=O)[C@H](CO)NC(=O)[C@H](Cc1ccc(O)cc1)NC(=O)[C@H](CC(=O)O)NC(=O)[C@H](CO)NC(=O)[C@@H](NC(=O)[C@H](Cc1ccccc1)NC(=O)[C@@H](NC(=O)CNC(=O)[C@H](CCC(N)=O)NC(=O)C(C)(C)NC(=O)[C@@H](N)Cc1ccc(O)cc1)[C@@H](C)O)[C@@H](C)O)[C@@H](C)CC)C(=O)N[C@@H](C)C(=O)N[C@@H](C)C(=O)N[C@@H](Cc1c[nH]cn1)C(=O)N[C@@H](CC(=O)O)C(=O)N[C@@H](Cc1ccccc1)C(=O)N[C@H](C(=O)N[C@@H](CCC(=O)O)C(=O)N[C@@H](Cc1c[nH]c2ccccc12)C(=O)N[C@@H](CC(C)C)C(=O)N[C@@H](CC(C)C)C(=O)N[C@@H](CO)C(=O)N[C@@H](C)C(=O)NCC(=O)N1CCC[C@H]1C(=O)N[C@@H](CO)C(=O)N[C@@H](CO)C(=O)NCC(=O)N[C@@H](C)C(=O)N1CCC[C@H]1C(=O)N1CCC[C@H]1C(=O)N1CCC[C@H]1C(=O)N[C@@H](CO)C(N)=O)C(C)C)C(=O)O [Compound 29] (HELM PEPTIDE1{Y.[Aib].Q.G.T.F.T.S.D.Y.S.I.Y.L.D.S.K.A.A.H.D.F.V.E.W.L.L.S.A.G.P.S.S.G.A.P.P.P.S.[am]}|PEPTIDE2{[CCCCCCCCCCCCCCCC(=O)[*:2]].[gGlu]}$PEPTIDE1,PEPTIDE2,17:R3-2:R2$$$V2.0)		0.064 nM
CCCCCCCCCCCCCCCC(=O)N[C@@H](CCC(=O)NCCCC[C@H](NC(=O)[C@H](CCCCN)NC(=O)[C@H](CCC(=O)O)NC(=O)[C@H](CC(C)C)NC(=O)[C@H](Cc1ccc(O)cc1)NC(=O)[C@@H](NC(=O)[C@H](CO)NC(=O)[C@H](Cc1ccc(O)cc1)NC(=O)[C@H](CC(=O)O)NC(=O)[C@H](CO)NC(=O)[C@@H](NC(=O)[C@H](Cc1ccccc1)NC(=O)[C@@H](NC(=O)CNC(=O)[C@H](CCC(N)=O)NC(=O)C(C)(C)NC(=O)[C@@H](N)Cc1ccc(O)cc1)[C@@H](C)O)[C@@H](C)O)[C@@H](C)CC)C(=O)N[C@@H](C)C(=O)N[C@@H](C)C(=O)N[C@@H](CCCCN)C(=O)N[C@@H](CCC(=O)O)C(=O)N[C@@H](Cc1ccccc1)C(=O)N[C@H](C(=O)N[C@@H](CCC(=O)O)C(=O)N[C@@H](Cc1c[nH]c2ccccc12)C(=O)N[C@@H](CC(C)C)C(=O)N[C@@H](CC(C)C)C(=O)N[C@@H](CO)C(=O)N[C@@H](C)C(=O)NCC(=O)N1CCC[C@H]1C(=O)N[C@@H](CO)C(=O)N[C@@H](CO)C(=O)NCC(=O)N[C@@H](C)C(=O)N1CCC[C@H]1C(=O)N1CCC[C@H]1C(=O)N1CCC[C@H]1C(=O)N[C@@H](CO)C(N)=O)C(C)C)C(=O)O [Compound 32] (HELM PEPTIDE1{Y.[Aib].Q.G.T.F.T.S.D.Y.S.I.Y.L.E.K.K.A.A.K.E.F.V.E.W.L.L.S.A.G.P.S.S.G.A.P.P.P.S.[am]}|PEPTIDE2{[CCCCCCCCCCCCCCCC(=O)[*:2]].[gGlu]}$PEPTIDE1,PEPTIDE2,17:R3-2:R2$$$V2.0)		0.04 nM
CCCCCCCCCCCCCCCC(=O)N[C@@H](CCC(=O)NCCCC[C@H](NC(=O)[C@H](CO)NC(=O)[C@H](CC(=O)O)NC(=O)[C@H](CC(C)C)NC(=O)[C@H](Cc1ccc(O)cc1)NC(=O)[C@@H](NC(=O)[C@H](CO)NC(=O)[C@H](Cc1ccc(O)cc1)NC(=O)[C@H](CC(=O)O)NC(=O)[C@H](CO)NC(=O)[C@@H](NC(=O)[C@H](Cc1ccccc1)NC(=O)[C@@H](NC(=O)CNC(=O)[C@H](CCC(N)=O)NC(=O)C(C)(C)NC(=O)[C@@H](N)Cc1ccc(O)cc1)[C@@H](C)O)[C@@H](C)O)[C@@H](C)CC)C(=O)N[C@@H](C)C(=O)N[C@@H](C)C(=O)N[C@@H](Cc1c[nH]cn1)C(=O)N[C@@H](CC(=O)O)C(=O)N[C@@H](Cc1ccccc1)C(=O)N[C@H](C(=O)N[C@@H](CCC(=O)O)C(=O)N[C@@H](Cc1c[nH]c2ccccc12)C(=O)N[C@@H](CC(C)C)C(=O)N[C@@H](CC(C)C)C(=O)N[C@@H](CCCNC(=N)N)C(=O)N[C@@H](C)C(N)=O)C(C)C)C(=O)O [Compound 27] (HELM PEPTIDE1{Y.[Aib].Q.G.T.F.T.S.D.Y.S.I.Y.L.D.S.K.A.A.H.D.F.V.E.W.L.L.R.A.[am]}|PEPTIDE2{[CCCCCCCCCCCCCCCC(=O)[*:2]].[gGlu]}$PEPTIDE1,PEPTIDE2,17:R3-2:R2$$$V2.0)		0.099 nM
CCCCCCCCCCCCCCCC(=O)N[C@@H](CCC(=O)NCCCC[C@H](NC(=O)[C@H](CO)NC(=O)[C@H](Cc1ccc(O)cc1)NC(=O)[C@H](CC(=O)O)NC(=O)[C@H](CO)NC(=O)[C@@H](NC(=O)[C@H](Cc1ccccc1)NC(=O)[C@@H](NC(=O)CNC(=O)[C@H](CCC(N)=O)NC(=O)C(C)(C)NC(=O)[C@@H](N)Cc1ccc(O)cc1)[C@@H](C)O)[C@@H](C)O)C(=O)N[C@@H](Cc1ccc(O)cc1)C(=O)N[C@@H](CC(C)C)C(=O)N[C@@H](CCC(=O)O)C(=O)N[C@@H](CCCCN)C(=O)N[C@@H](CCCCN)C(=O)N[C@@H](C)C(=O)N[C@@H](C)C(=O)N[C@@H](CCCCN)C(=O)N[C@@H](CCC(=O)O)C(=O)N[C@@H](Cc1ccccc1)C(=O)N[C@H](C(=O)N[C@@H](CCC(=O)O)C(=O)N[C@@H](Cc1c[nH]c2ccccc12)C(=O)N[C@@H](CC(C)C)C(=O)N[C@@H](CC(C)C)C(=O)N[C@@H](CO)C(=O)N[C@@H](C)C(N)=O)C(C)C)C(=O)O [Compound 25] (HELM PEPTIDE1{Y.[Aib].Q.G.T.F.T.S.D.Y.S.K.Y.L.E.K.K.A.A.K.E.F.V.E.W.L.L.S.A.[am]}|PEPTIDE2{[CCCCCCCCCCCCCCCC(=O)[*:2]].[gGlu]}$PEPTIDE1,PEPTIDE2,12:R3-2:R2$$$V2.0)		0.19 nM
